Calls of active or inactive are those of the source. Rule as the data show it, for most assays here: actives have a measured EC50 and inactives only a lower limit.
What was measured:
[1] = Luminescence Cell-Based Dose Confirmation HTS to Identify Inhibitors of Platelet Dense Granule Release. [Related pubchem assays: 1663 (Primary HTS), 1678 (Summary of Project)]; format: functional
[2] = target: Luciferin 4-monooxygenase (Photinus pyralis, UniProt P08659); assay: firefly luciferase enzyme inhibitors, dose response, biochemical, luminescence (AID 1891)
[3] = Luminescence Cell-Based Dose Confirmation HTS to Identify Activators of 5'UTR Stem-Loop Driven Alpha-Synuclein mRNA Translation in H4 Neuroglioblastoma Cells. [Related pubchem assays: 1829 (Project Summary), 1814 (Primary HTS)]; format: functional
H4 = assay: Luminescence Cell-Based Dose Response HTS to Identify Activators of 5'UTR Stem-Loop Driven Prion Protein mRNA Translation in H4 Neuroglioblastoma Cells. [Related pubchem assays: 1829 (Project Summary), 1814 (Primary HTS)]; format: functional; settings: Homo sapiens
[4] = Luminescence Cell-Based Dose Response HTS to Identify Activators of Luciferase Translation or Activity in H4 […] Cells. [Related pubchem assays: 1829 (Project Summary), 1814 (Primary HTS)]; format: functional
[5] = HEp-2 cell cytotoxicity, dose response, cytotoxicity control for RSV inhibitor project, HTS (AID 2410); format: functional; settings: human respiratory syncytial virus
Protein skinhead-1 = target: T1, Protein skinhead-1 (Caenorhabditis elegans, UniProt P34707); format: functional
T1 sequence (P34707 whole entry): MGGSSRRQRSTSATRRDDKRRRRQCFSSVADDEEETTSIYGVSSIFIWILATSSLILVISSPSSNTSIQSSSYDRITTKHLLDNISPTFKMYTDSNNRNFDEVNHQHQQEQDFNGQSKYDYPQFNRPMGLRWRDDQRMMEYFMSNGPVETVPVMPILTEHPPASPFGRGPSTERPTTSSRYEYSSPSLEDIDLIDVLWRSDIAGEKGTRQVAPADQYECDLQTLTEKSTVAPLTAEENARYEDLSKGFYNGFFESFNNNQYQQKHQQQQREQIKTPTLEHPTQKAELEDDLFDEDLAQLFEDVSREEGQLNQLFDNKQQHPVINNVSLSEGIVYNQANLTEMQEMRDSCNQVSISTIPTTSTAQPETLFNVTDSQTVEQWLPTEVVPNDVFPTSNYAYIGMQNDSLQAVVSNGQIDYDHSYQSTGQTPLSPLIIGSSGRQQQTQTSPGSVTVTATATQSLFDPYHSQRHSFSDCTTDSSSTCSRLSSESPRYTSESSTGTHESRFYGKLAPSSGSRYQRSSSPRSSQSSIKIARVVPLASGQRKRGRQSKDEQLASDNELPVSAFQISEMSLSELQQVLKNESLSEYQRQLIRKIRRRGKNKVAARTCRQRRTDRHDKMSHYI

Nonstructural protein 1 = Nonstructural protein 1 (Influenza A virus, UniProt Q194T2); format: functional, Influenza A virus (A/California/07/2009(H1N1))
[6] = NIH-3T3 fibroblast cytotoxicity, dose response, cytotoxicity control, cell-based, fluorescence, Alamar Blue, secondary assay (AID 2327); format: functional;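 also: NIH-3T3 mouse fibroblasts cultured with fluconazole at 8 µg/mL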
[7] = inhibitors of firefly luciferase expression or activity, dose response, H4 neuroglioma cells, luminescence (AID 1990); format: functional, cell-based
[8] = inhibitors of SNCA 5'UTR-driven reporter translation, confirmation, H4 neuroglioma cells, luminescence (AID 1988); format: functional, cell-based
[9] = Luminescence Cell-Based Dose Response HTS to Identify Inhibitors of 5'UTR Stem-Loop Driven Prion Protein mRNA Translation in H4 Neuroglioblastoma Cells. [Related pubchem assays: 1827 (Project Summary), 1813 (Primary HTS)]; format: functional
[10] = cytotoxicity toward NIH3T3 fibroblasts, dose response, counter-screen, cell-based, ATP luminescence, mouse fibroblasts (AID 2010); format: functional;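 also: cells exposed to compound for about 90 hours before reading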
[11] = inhibitors of intracellular T. cruzi replication, confirmation, NIH3T3 host cells, beta-gal luminescence (AID 2044); format: functional, cell-based;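 also: intracellular parasites grown in NIH/3T3 mouse fibroblasts as host cells; luminescent beta-galactosidase reporter signal from transgenic T. cruzi replicating inside host cells; inhibitors lower the luminescence signal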
[12] = target: T2, Rac GTPase-activating protein 1 (Homo sapiens, UniProt Q9H0H5); assay: MgcRacGAP GTPase-activating activity inhibitors, confirmation, biochemical, ADP Hunter fluorescence, primary and confirmatory (AID 624330); format: functional
T2 sequence (Q9H0H5 whole entry): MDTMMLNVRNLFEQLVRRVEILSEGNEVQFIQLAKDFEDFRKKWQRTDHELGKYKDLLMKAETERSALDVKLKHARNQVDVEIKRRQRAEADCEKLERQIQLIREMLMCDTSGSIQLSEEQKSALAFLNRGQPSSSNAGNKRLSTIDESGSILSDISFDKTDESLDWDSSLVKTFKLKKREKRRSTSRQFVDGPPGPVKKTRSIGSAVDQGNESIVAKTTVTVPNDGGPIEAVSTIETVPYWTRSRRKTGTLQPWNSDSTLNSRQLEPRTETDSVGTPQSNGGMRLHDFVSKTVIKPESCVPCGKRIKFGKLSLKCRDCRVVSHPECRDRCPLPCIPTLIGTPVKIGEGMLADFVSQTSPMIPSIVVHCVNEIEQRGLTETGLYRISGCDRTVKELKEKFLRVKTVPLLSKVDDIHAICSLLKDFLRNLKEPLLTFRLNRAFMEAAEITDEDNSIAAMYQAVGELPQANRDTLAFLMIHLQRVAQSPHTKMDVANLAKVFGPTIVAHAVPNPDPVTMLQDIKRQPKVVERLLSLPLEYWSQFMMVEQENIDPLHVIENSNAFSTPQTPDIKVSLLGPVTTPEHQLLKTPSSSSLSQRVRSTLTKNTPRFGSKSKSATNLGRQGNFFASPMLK

Sequence of Luciferin 4-monooxygenase (P08659 whole entry): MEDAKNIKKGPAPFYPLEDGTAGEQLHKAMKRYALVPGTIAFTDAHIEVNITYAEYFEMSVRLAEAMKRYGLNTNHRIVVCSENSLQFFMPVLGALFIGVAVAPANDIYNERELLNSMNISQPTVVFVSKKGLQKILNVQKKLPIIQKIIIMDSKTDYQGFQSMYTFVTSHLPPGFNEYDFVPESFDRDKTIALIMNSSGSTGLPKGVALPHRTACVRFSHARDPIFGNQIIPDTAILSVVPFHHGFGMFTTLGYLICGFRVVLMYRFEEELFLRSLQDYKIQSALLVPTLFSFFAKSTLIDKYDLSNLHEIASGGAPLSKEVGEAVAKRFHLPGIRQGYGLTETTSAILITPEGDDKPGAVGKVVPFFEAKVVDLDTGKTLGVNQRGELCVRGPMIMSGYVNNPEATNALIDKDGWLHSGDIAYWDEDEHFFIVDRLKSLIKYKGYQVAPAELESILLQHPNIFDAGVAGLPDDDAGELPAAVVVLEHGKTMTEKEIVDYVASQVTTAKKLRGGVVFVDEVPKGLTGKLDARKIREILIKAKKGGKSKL
Sequence of Nonstructural protein 1 (Q194T2 whole entry): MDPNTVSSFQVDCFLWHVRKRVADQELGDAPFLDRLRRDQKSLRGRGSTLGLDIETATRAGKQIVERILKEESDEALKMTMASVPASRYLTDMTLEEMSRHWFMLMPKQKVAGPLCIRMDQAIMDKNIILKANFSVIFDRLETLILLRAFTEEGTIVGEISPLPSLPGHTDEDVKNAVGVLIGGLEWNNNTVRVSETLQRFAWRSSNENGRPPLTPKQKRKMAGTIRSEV

Q: What does the source list for `O=C(Nc1ccccc1)c1cnc2ccccc2n1`?
A: EC50 [1]: > 112 µM (not active); EC50 [2]: > 112 µM (not active)

Q: What does the source list for `COc1ccc2nc(NNC(=O)c3cc(=O)c4ccccc4o3)sc2c1`?
A: EC50 [3]: 40.6 µM (active); EC50 (H4): 17.4 µM (active); EC50 [4]: 24.4 µM (active)

Q: With `O=C(NCCOc1ccc(Cl)cc1)c1ccc2ccccc2n1` as the compound, how does the CC50 [5] read?
A: 20.9 µM (active)

Q: And the IC50 (Protein skinhead-1)?
A: > 100 µM (inactive)

Q: With `O=C1c2ccccc2-c2onc3c(N4CCN(CCO)CC4)cc(N4CCN(C(=O)c5ccco5)CC4)c1c23` as the compound, how does the IC50 (Nonstructural protein 1) read?
A: 9.93 µM (active)

Q: With `CCCc1ccc(Oc2cc(Cl)nc(N)n2)cc1` as the compound, how does the EC50 [3] read?
A: 8.77 µM (active)

Q: What about the EC50 (H4) of the same compound?
A: 72 µM (active)

Q: What about the EC50 [4] of the same compound?
A: 11.8 µM (active)

Q: Which results are given for `Cc1ccc(S(=O)(=O)NCC2CCC(C(=O)NCc3ccc4c(c3)OCO4)CC2)cc1` (stereo not given)?
A: EC50 [1]: > 112 µM (not active); EC50 [2]: > 112 µM (not active)

Q: Which EC50 [3] does the source give for `c1ccc(NCc2nc(-c3ccccc3)no2)cc1` here?
A: 3.25 µM (active)

Q: And the EC50 (H4)?
A: 15.8 µM (active)

Q: What about the EC50 [4] of the same compound?
A: 21.4 µM (active)

Q: With `COc1ccc(-c2n[nH]c(S)n2)cc1` as the compound, how does the EC50 [1] read?
A: > 112 µM (not active)

Q: Which EC50 [6] does the source give for `Cc1cc(C)cc(OCc2ccc(C(=O)N3N=C(C(F)F)CC3(O)C(F)F)o2)c1` (stereo not given) here?
A: 120 µM (active)

Q: With `FCCCOc1ccc(-c2nccc(-c3ccccn3)n2)cc1` as the compound, how does the IC50 (Protein skinhead-1) read?
A: 17.9 µM (active)

Q: Which results are given for `O=C1C[C@H]2[C@H](CO)[C@@H](OC(=O)c3ccc(-c4ccccc4)cc3)C[C@H]2O1`?
A: EC50 [3]: 12.8 µM (active); EC50 (H4): 69.8 µM (active); EC50 [4]: 16.9 µM (active)

Q: With `OC1CN=C2C=CC=CN2C1` (stereo not given) as the compound, how does the EC50 [1] read?
A: > 112 µM (not active)

Q: What about the EC50 [2] of the same compound?
A: > 112 µM (not active)

Q: For `CC(=O)Nc1cccc(Oc2cc(C#N)c(C#N)cc2N2CCCCCC2)c1`, which EC50 [7] is on record?
A: 14.6 µM (active)

Q: What about the EC50 [8] of the same compound?
A: > 120 µM (not active)

Q: What about the EC50 [9] of the same compound?
A: > 120 µM (not active)

Q: For `NC(Cc1nc(-c2ccc(Br)cc2)cs1)=NO`, which EC50 [6] is on record?
A: > 150 µM (inactive)

Q: Which EC50 [1] does the source give for `COc1cc(NC(=O)CN2C(=O)C(c3ccccc3)=NC23CCCCCC3)cc(OC)c1` here?
A: > 112 µM (not active)

Q: What about the EC50 [2] of the same compound?
A: > 112 µM (not active)

Q: For `COc1ccc(C(c2sc3nc(C)nn3c2O)N2CCCCC2)cc1` (stereo not given), which EC50 [1] is on record?
A: > 112 µM (not active)

Q: And the EC50 [2]?
A: > 112 µM (not active)

Q: What does the source list for `CCOc1ccc2nc(NC(=O)CSc3nnc(-c4ccncc4)n3CC3CCCO3)sc2c1` (stereo not given)?
A: EC50 [3]: 7.45 µM (active); EC50 (H4): 11.8 µM (active); EC50 [4]: 8.04 µM (active)

Q: Which EC50 [7] does the source give for `CC(C)CNc1nc(N)c([N+](=O)[O-])c(NCc2ccccc2)n1` here?
A: 16.3 µM (active)

Q: And the EC50 [8]?
A: 22.7 µM (active)

Q: And the EC50 [9]?
A: > 120 µM (not active)

Q: Which IC50 (Protein skinhead-1) does the source give for `CN1CCc2c(sc3c2C(=O)NC(c2ccccc2)N3)C1` (stereo not given) here?
A: > 100 µM (inactive)

Q: Which IC50 (Protein skinhead-1) does the source give for `CCOC(=O)C1(C)C(N=Nc2ccc(Cl)cc2)=C(O)C(=O)N1c1ccccc1` (stereo not given) here?
A: > 100 µM (inactive)

Q: What does the source list for `Cn1ncc2cc(NC(=S)NC(=O)c3ccccc3)ccc21`?
A: EC50 [3]: 13.8 µM (active); EC50 (H4): 83 µM (active); EC50 [4]: 21 µM (active)

Q: Which EC50 [1] does the source give for `Cc1nc(S)c(C#N)c(C)c1CCC#N` here?
A: > 112 µM (not active)

Q: With `CONC=NC(=O)NOCc1ccc(Cl)cc1Cl` as the compound, how does the EC50 [1] read?
A: > 112 µM (not active)

Q: What about the EC50 [2] of the same compound?
A: > 112 µM (not active)

Q: With `CC(C(=O)N(C)Cc1ccccc1)N1CCN(C/C=C/c2ccccc2)CC1` (stereo not given) as the compound, how does the EC50 [10] read?
A: > 30 µM (not active)

Q: And the EC50 [11]?
A: 0.164 µM (active)

Q: What about the IC50 [12] of the same compound?
A: 80.2 µM (active)

Q: For `Cc1ccccc1NC(=O)CSc1nn2c(=O)c(C)nnc2s1`, which IC50 (Nonstructural protein 1) is on record?
A: 10.5 µM (active)
